Measured values: patent publication US20210069082A1, “SPIROKETALS AND USES THEREOF” (Memorial Sloan-Kettering Cancer Center, priority 2017, published 2021)
Read-outs that look alike come from different tables or passages of the source.

Tests used:
[1] = tested on: rat mesangial cells; experiment: DCFDA assay of ROS levels upon exogenous H2O2 treatment; type: cell-based; conditions: 200 μM H2O2, rat mesangial cells
Experimental: Dichlorofluorescin diacetate (DCFDA) assay measured ROS levels upon treatment with 200 μM H2O2.
DCFDA assay measured ROS levels upon treatment with 200 μM H2O2.

[2] = tested on: rat mesangial cells; experiment: Inhibition of high glucose-induced ROS production in rat mesangial cells (DCFH-DA fluorescence); type: cell-based; conditions: for Concentration required for complete inhibition (ROS production reduced to normal levels): high glucose-induced ROS, rat mesangial cells; for IC50: 3 h, DCFH-DA 50 μM, mean of three experiments, s.d. of log IC50 in brackets; for Antioxidant activity against hyperglycemia-induced ROS generation (in words): concomitant treatment with compound plus high glucose for 3 h, DCFDA assay
Experimental: The inhibitory effects of the pyrrolomorpholine spiroketals on high glucose-induced oxidative stress were evaluated in rat mesangial cells (RMC). The rat mesangial cells, obtained from the American Type Culture Collection (CRL-2573), were cultured at 37° C. in Dulbecco's modified Eagle's medium (DMEM) containing 5.6 mM glucose (normal glucose), 10% fetal calf serum (FCS), nonessential amino acids, penicillin/streptomycin under a humidified atmosphere of 95% air and 5% CO2. Rat mesangial cells were seeded in 96-well plates approximately 24 hours before the start of all experiments. For more details on the antioxidant activity assays, see, e.g., Wang et al. Free Radical Biol. Med. 1999, 27, 612-616; Magalhães et al. Anal. Chim. Acta. 2008, 613, 1-19; Peng et al. Org. Lett. 2010, 12, 4932-4935; Hung et al. Am. J. Nephrol. 2009, 29, 192-202.
For each experiment, rat mesangial cells were incubated with pyrrolomorpholine spiroketal compound (0.01, 0.03, 0.1, 0.3, 1, 3, 10, 30, 100, 200 μM) or 1 mM N-acetyl cysteine (NAC, positive control) in the presence of either 5.6 mM (normal glucose, NG) or 30 mM (high glucose, HG) D-glucose for 3 h. RMC were then incubated with 50 μM dichloro-dihydro-fluorescein diacetate (DCFH-DA) for 45 min, and intracellular production of ROS was detected by 2′,7′-dichlorofluorescein (DCF) fluorescence (485 nm excitation, 530 emission) as measured by a microplate reader (SpectraMax M5/M5, Molecular Devices). Values are expressed as percentage of ROS inhibition, where fluorescence from untreated cells under normal glucose conditions was set at 0% and untreated cells under high glucose conditions was set at 100%.

[3] = tested on: rat mesangial cells; conditions: cited from earlier work; for Antioxidant activity as reported (in words): high glucose-induced ROS, rat mesangial cells, literature
[4] = tested on: mesangial cells; conditions: through inhibition of NADPH oxidase, literature; cited from earlier work
[5] = Chemical reactivity towards reactive oxygen and nitrogen species; type: physicochemical; conditions: equimolar concentrations
[6] = cyclic voltametry, Aponick and coworkers; cited from earlier work
[7] = Rattus norvegicus, Mesangial cell, compound 0-200 μM, high (30 mM) glucose, N-acetyl-cysteine at 1 mM, ***p ≤ 0.001, read-out: Maximum % ROS Inhibition

For OC[C@H]1O[C@@]2(Cc3ccccc3CO2)C[C@@H]1O (single isomer, unassigned) [desformylbenzene 7], the “Block of the direct effect of exogenous H2O2 on ROS levels” value [1] was “does not block”, the inhibition [2, 7] was 100% and the “Concentration required for complete inhibition (ROS production reduced to normal levels)” value [2] was 5 µM.
O=CC[C@H](O)[C@H](O)CO [2-deoxy-D-ribose] showed an IC50 ([2]; Rattus norvegicus, Mesangial cell, compound 0-200 μM, high (30 mM) glucose) greater than 200 µM.
For O=Cc1ccc2n1C[C@@]1(OC2)O[C@H](CO)[C@@H](O)[C@@H]1O.c1ccccc1 [Acortatarin B, acortatarin B], the “Antioxidant activity as reported (in words)” value [3] is given as “significantly attenuating high glucose-induced generation of ROS”.
In the case of O=Cc1ccc2n1CC1(CC(O)C(CO)O1)OC2 [L-acortatarin A], the “Antioxidant activity against hyperglycemia-induced ROS generation (in words)” value [2] is reported as “inactive”.
With CC(=O)N[C@@H](CS)C(=O)O [N-acetyl-cysteine] the inhibition at 1000 µM [2, 7] was 100%.
For O=Cc1ccc2n1C[C@]1(C[C@H](O)[C@@H](CO)O1)OC2 [acortatarin A (1), acortatarin A], the “Effect on high glucose-induced extracellular matrix production” value [4] is listed as “prevent”, the “Block of the direct effect of exogenous H2O2 on ROS levels” value [1] is listed as “does not block” and the “Reactivity to equimolar H2O2, OH radical and peroxynitrite” value [5] is listed as “unreactive”. For the same molecule, the First oxidation potential [6] was “+1.74 V”, the Second oxidation potential [6] was 1.90 V and the “Antioxidant activity as reported (in words)” value [3] was “complete inhibition of ROS induction at higher concentrations”. The “Antioxidant activity as reported (in words)” value ([3]; listed as Acortatarin A) was “significantly attenuating high glucose-induced generation of ROS”, the IC50 ([3]; rat mesangial cell model, intracellular ROS levels, read-out: IC50 against hyperglycemia-induced oxidative stress, as recently reported) was 4.9 µM and the IC50 ([2]; compound 0-200 μM, high (30 mM) glucose) was 4.9 µM. The “Maximum % ROS Inhibition” value ([2]; compound 0-200 μM, high (30 mM) glucose, N-acetyl-cysteine at 1 mM, ***p ≤ 0.001) was 100%***, the “Antioxidant activity against hyperglycemia-induced ROS generation (in words)” value [2] was “complete inhibition of ROS induction at higher concentrations” and the “Concentration required for complete inhibition (ROS production reduced to normal levels)” value [2] was 20 µM.
In the case of O=Cc1cccc2c1C[C@]1(C[C@H](O)[C@@H](CO)O1)OC2 [formylbenzene 8, (2S,4S,5R)-4-hydroxy-5-(hydroxymethyl)-4,5-dihydro-3H-spiro[furan-2,3′-isochromane]-5′-carbaldehyde], the inhibition [2, 7] is reported as 100%.
